Patent publication US7585851B2, “3′-prodrugs of 2′-deoxy-β-L-nucleosides” (priority 2000, dated 2009)

Columns and labels:
[1] = test system: human hepatoma cell line 2.2.15; assay: Cytotoxicity in 2.2.15 cells; conditions: 2.2.15 cells; 50% inhibition of neutral red dye uptake (Table 25)
[2] = test system: human erythroid burst-forming (BFU-E) progenitor cells; type: cell-based; conditions: human bone marrow clonogenic assay
Excerpt: (§1) In particular, anemia and neutropenia are the most common drug-related clinical toxicities associated with the anti-HIV drug zidovudine (ZDV).

[3] = test system: human granulocyte-macrophage colony-forming (CFU-GM) progenitor cells; type: cell-based; conditions: human bone marrow clonogenic assay
Excerpt: as §1

[4] = Cytotoxicity in 2.2.15 cells; conditions: human, 2.2.15 hepatoma cells
HBV = assay: Anti-HBV activity in HBV-expressing 2.2.15 cells (HBV DNA reduction)

Row | Structure (SMILES) | CC50 [1] [µM] | IC50 [2] [µM] | IC50 [3] [µM] | CC50 [4] [µM] | S.I. (CC50/EC90) (HBV; 2.2.15 cells) | EC90 (HBV; Hepatitis B virus) [µM]
1 | Cc1cn([C@@H]2C[C@@H](O)[C@H](CO)O2)c(=O)[nH]c1=O [L-dT, β-L-2′-deoxythymidine] | 3020 |  |  |  |  | 
2 | Nc1ccn([C@@H]2CS[C@H](CO)O2)c(=O)n1 [lamivudine, (−)-enantiomer of cis-2-hydroxymethyl-5-(cytosin-1-yl)-1,3-oxathiolane, reference compound] |  | > 10 | > 10 | > 1000 | >5,000 | 0.18 ± 0.007
